Where a name gives a salt, the structure may show the parent alone. Read-outs that look alike come from different tables or passages of the source.
Tests used:
MeWo cells [1] = experiment: Cytotoxicity assay (neutral red), MeWo cells; format: cell-based, human; settings: for Dxr-IC50 in the presence of 20 µM compound: MeWo (Figure 3B), same series also tested on A375 (Figure S1); for Dxr-IC50 in the presence of 20 µM compound / effect on dxr cytotoxicity: compound at 20 µM; for effect on dxr cytotoxicity: melanoma cells MeWo (Figure 3B) and A375 (Figure S1), compared to PAH; for IC50: Homo sapiens
Method: (§1) Human melanoma cell lines A375 and MeWo were purchased from ATCC, and cultured in DMEM medium supplemented with 10% fetal bovine serum and penicillin/streptomycin (Invitrogen) at 37 °C in a 5% CO2/95% water-saturated air atmosphere. Melanoma cell lines SKMEL 28, SKMEL V3, WM9S, and WM9R were provided by Robert Ballotti (C3M, Nice, France). MeWo-dxrR cells were obtained by adding increasing concentrations of doxorubicin, up to 0.2 µM, in the culture medium over 6 months. These cells were grown in medium supplemented with 0.2 µM dxr. WM9R cells were obtained by adding increasing concentrations of vemurafenib, up to 5 µM, in the culture medium over 6 months. These cells were grown in medium supplemented with 5 µM vemurafenib. HEK cells were grown in 75 mm tissue culture dishes (Falcon, Franklin Lakes, NJ, USA) in Dulbecco’s modified Eagle’s medium (Gibco, Life Technologies, Saint Aubin, France) supplemented with 10% fetal calf serum (Hyclone, Thermo Fisher Scientific GMBH, Ulm, Germany) and 1% penicillin/streptomycin (Gibco, Life Technologies, Saint Aubin, France) in a humidified incubator at 37 °C (5% CO2).
(§2) Cells were seeded in 96-well plates in triplicate and grown in medium to achieve 70 to 80% confluence. Medium was then removed and replaced with 100 µL/well of complete medium containing PAH or DMSO as a control. After 2 h, 100 µL of complete medium containing serial dilutions of dxr, cisplatin or vemurafenib were added. Plates were incubated at 37 °C and 5% CO2. After 24 or 48 h, cells were incubated for 3 h at 37 °C with 100 µL/well neutral red (NR) solution (50 µg/mL in medium) following the manufacturer’s protocol. Measurements were made in microplate readers (Multiskan Go Microplate Spectrophotometer from Thermo Scientific).

A375 cells [2] = experiment: Cytotoxicity assay (neutral red), A375 cells; format: cell-based, human; settings: for IC50: Homo sapiens
Method: as §1, §2

MeWo cells [3] = experiment: Melanoma cells grafted on the chorioallantoic membrane (CAM) of chick eggs; format: in vivo; settings: MeWo tumors on CAM; sPAH 500 µM and/or Dxr 20 µM, 100 µL every two days, 10 days
Method: These experiments were performed by the company INOVOTION (La Tronche, France). Fertilized White Leghorn eggs were randomized in 4 groups 9 days after inoculation of 3.10^6 MeWo cells onto the CAM of each egg. At day 10 (E10), tumors began to be detectable and they were treated by adding 100 µL of vehicle (1.2% DMSO in PBS), doxorubicin, and sPAH alone or with doxorubicin. Eggs were treated every two days (E10, E12, E14, E16, E18) for 10 days in the same way. At day 19 (E19), the upper portion of the CAM was removed, washed in PBS, and directly transferred in PFA for 48 h, and the tumors were then carefully cut away from normal CAM tissue.

MeWo-DxrR cells = experiment: Cytotoxicity assay (neutral red), MeWo cells rendered resistant to dxr; format: cell-based; settings: Homo sapiens, Dxr + DMSO
Method: as §1
Cells were seeded in 96-well plates in triplicate and grown in medium to achieve 70 to 80% confluence. […] Measurements were made in microplate readers (Multiskan Go Microplate Spectrophotometer from Thermo Scientific).

WM9R cells = experiment: Competition on dxr loading, WM9R cells; format: cell-based; settings: 10 µM dxr, 100 µM vemurafenib, 1 h
Method: (§3) Dxr efflux measurements were carried out as previously described. Cells were seeded on coverslips in 24-well plates and allowed to grow to 80% confluence. Coverslips were incubated at 37 °C and 5% CO2 with 10 μM dxr in physiological buffer (140 mM NaCl, 5 mM KCl, 1 mM CaCl2, 1 mM MgSO4, 5 mM glucose, 20 mM HEPES, pH 7.4). After 2 h, three coverslips were immediately fixed with 4% PFA for the dxr loading control, rapidly washed with PBS and mounted in SlowFade Gold antifade reagent with DAPI (Invitrogen). The other coverslips (triplicated per condition) were incubated with physiological buffer supplemented with DMSO or 10 µM of PAH under gentle shaking at room temperature and protected from light. After 30 min, coverslips were fixed with 4% PFA, washed, and mounted as described above. For competition on dxr loading, A375 and WM9R cells seeded on coverslips were incubated for 1 h at 37 °C and 5% CO2 with 10 μM dxr in physiological buffer in the presence or the absence of 100 µM vemurafenib. Images were acquired with a Zeiss Axioplan 2 fluorescence microscope coupled to a digital charge-coupled device camera using a 40×/1.3 Plan NeoFluar objective and filters for Alexa 594. Dxr fluorescence was quantified using ImageJ software. Sampling of cells was performed randomly. About 100 cells (from three wells) were scored per condition per experiment.

A375 cells [4] = experiment: Competition on dxr loading, A375 cells; format: cell-based, human; settings: 10 µM dxr, 100 µM vemurafenib, 1 h
Method: as §3

[5] = tested on: A375 BRAF^V600E melanoma cells; experiment: Melanoma xenograft study in mice; format: in vivo; settings: Figure S6
Method: Forty-eight male athymic Nu/NU NMRI mice (4–5 weeks) were purchased from Charles River and housed under pathogen-free conditions. A 200 µL aliquot of 3 Millions A375 BRAF^V600E melanoma cells were injected subcutaneously per mouse. […] Animals were monitored daily for symptoms of disease (weight loss >20%, ruffled coat, hunched back, weakness, reduced motility) and tumor sizes were measured every 3 to 4 days. […]
A part of each tumor was cut in 8 µm thick tissue sections using a microtome-cryostat for quantification of the number of apoptotic tumor cells and of proliferative cells performed using the colorimetric DeadEND TUNEL System (Promega, Mannheim, Germany) and immunofluorescence analysis of Ki67 (BD pharmigen 556003), respectively. OCT was removed from the remainder of each tumor, and tumors were crushed in 50 mM Tris-HCl pH 6.8, 10% glycerol, and 2% SDS), heated at 95 °C, and sonicated for Western blot analyses as well as vemurafenib and cholesterol quantification. Protein concentration in each homogenate was evaluated using a Bio-Rad protein assay based on the Bradford dye-binding method.

COc1ccc(O)c(CC=C(C)CCc2c(C)cc(OC)c(C)c2C)c1 [Compound 8]
Dxr-IC50 in the presence of 20 µM compound (MeWo cells [1]): could not be determined, owing to greater than 50% viability | effect on dxr cytotoxicity (MeWo cells [1]): had no effect on dxr cytotoxicity

COc1cc(C)c(CCC(C)=CCC2=CC(=O)C=CC2=O)c(C)c1C [Compound 9, Panicein A]
Dxr-IC50 in the presence of 20 µM compound (MeWo cells [1]): could not be determined, owing to greater than 50% viability | effect on dxr cytotoxicity (MeWo cells [1]): very weakly increased the cytotoxicity of dxr

COc1ccc(O)c(CCC(C)CCc2c(C)cc(OC)c(C)c2C)c1 (centres unmarked) [Compound 11]
Dxr-IC50 in the presence of 20 µM compound (MeWo cells [1]): could not be determined, owing to greater than 50% viability

COc1cc(C)c(CCC(C)CCC2=CC(=O)C=CC2=O)c(C)c1C (centres unmarked) [Compound 12]
Dxr-IC50 in the presence of 20 µM compound (MeWo cells [1]): could not be determined, owing to greater than 50% viability

COc1cc(C)c(CCC(C)CCc2cc(O)ccc2O)c(C)c1C (centres unmarked) [Compound 13]
Dxr IC50 in the presence of compound relative to that in the presence of PAH (MeWo cells [1]; MeWo, 20 µM compound): approximately 4 fold | Dxr IC50 in the presence of compound relative to that in the presence of PAH (A375 cells [2]; A375, 20 µM compound): comparable to that of PAH

COc1cccc2c1C(=O)c1c(O)c3c(c(O)c1C2=O)C[C@@](O)(C(=O)CO)C[C@@H]3O[C@H]1C[C@H](N)[C@H](O)[C@H](C)O1 [Dxr, Doxorubicin hydrochloride, reference compound]
Tumor regression (%) (tumor weight with respect to control) (MeWo cells [3]): 28% | IC50 (MeWo cells [1]; MeWo, Dxr + DMSO, 24 or 48 h, read-out: Dxr IC50): 142 ± 2.2 µM | IC50 (MeWo-DxrR cells): 247 ± 49 µM | IC50 (A375 cells [2]; A-375, A375, Dxr + DMSO, 24 or 48 h, read-out: Dxr IC50): 41 ± 8.2 µM

COc1cc(C)c(CC/C(C)=C/Cc2cc(O)ccc2O)c(C)c1C [Natural PAH, panicein A hydroquinone]
IC50 (MeWo cells [1]; MeWo, MeWo cells, 2 µM Dxr present, read-out: IC50 of PAH at 2 µM Dxr): 6.6 ± 0.8 µM | IC50 (A375 cells [2]; A-375, A375 cells, 2 µM Dxr present, read-out: IC50 of PAH at 2 µM Dxr): 12.4 ± 4.9 µM

CCCS(=O)(=O)Nc1ccc(F)c(C(=O)c2c[nH]c3ncc(-c4ccc(Cl)cc4)cc23)c1F [vemurafenib]
amount of dxr in cells in the presence of vemurafenib (WM9R cells): significantly increased | amount of dxr in cells in the presence of vemurafenib (A375 cells [4]): significantly increased | ERK phosphorylation in tumor extracts (pERK/ERK, Western blot) [5]: reduced ERK phosphorylation

From publication PMC7352342, “Inhibition of Patched Drug Efflux Increases Vemurafenib Effectiveness against Resistant Braf^V600E Melanoma” (Cancers, 2020)
